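Briefly, cells in 96-well plates were exposed to five compound concentrations for 48 h, and endpoints were estimated by linear interpolation. TGI marks complete inhibition of growth.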 A value given as a limit tells only on which side of the number the result lay.

This note sets out measurements from PubChem BioAssay (NCI).

Test systems include KM20L2 colon; RXF-631 renal; SNB-78 CNS; HOP-18 NSCLC; XF 498 CNS; MDA-MB-231 breast; HS 578T breast; MDA-N; MDA-MB-435.
Common to all, as to assay: DTP human tumour cell line panel, 48 h

Broadly, the TGI is the concentration at which net growth stops. For `CN1CCC(=O)/C(=C/c2ccccc2)C1`, the total growth inhibition concentration (TGI) was 26.6 µM in the test with KM20L2 colon; 33.9 µM in the test with RXF-631 renal; 57.6 µM in the test on SNB-78 CNS; 32.2 µM in the test with HOP-18 NSCLC; 32.9 µM in the test with XF 498 CNS.

Take `CN(C)C(=S)/N=c1\sn(C)/c(=N\C(=S)N(C)C)n1C`: the TGI in the test with KM20L2 colon, in the test on RXF-631 renal, with SNB-78 CNS, in the test on HOP-18 NSCLC and in the test on XF 498 CNS was above 100 µM throughout.

Consider `Cc1cc2c(=O)c3ccccc3[nH]c2c(C(N)=O)c1C`, for which the TGI in the test with KM20L2 colon, in the test on RXF-631 renal, in the test on SNB-78 CNS, in the test on HOP-18 NSCLC and in the test on XF 498 CNS was above 100 µM each time.

As to `O=C1N=C2Sc3ccc4ccccc4c3N2C1=O`, the TGI in the test with KM20L2 colon was 64.4 µM; in the test with RXF-631 renal it was 51.9 µM; in the test on SNB-78 CNS, 79.5 µM; in the test on HOP-18 NSCLC, 33 µM; in the test on XF 498 CNS it was 41.3 µM.

`C/C(N=NC(=S)N1CC2CCC(CC2)C1)=C1\C=CC=CN1O`: the concentration for total growth inhibition (TGI) with KM20L2 colon, with MDA-MB-231 breast, with HS 578T breast, in the test on RXF-631 renal, with SNB-78 CNS and in the test on HOP-18 NSCLC was above 100 µM in each case. For the same molecule, the total growth inhibition concentration (TGI) was above 100 µM in the test on MDA-N, above 100 µM in the test on MDA-MB-435 and 91.2 µM with XF 498 CNS.

For `COC(=O)/C(=C/c1ccc(OC)cc1)C(C(=O)O)=C1CCCC1`, the total growth inhibition concentration (TGI) in the test on KM20L2 colon, with RXF-631 renal, in the test on SNB-78 CNS and in the test on XF 498 CNS was above 100 µM in each case.

`Cc1ccccc1C(=O)c1cc(O)ccc1O`: the concentration for total growth inhibition (TGI) in the test on KM20L2 colon, in the test with RXF-631 renal, with SNB-78 CNS, with HOP-18 NSCLC and in the test on XF 498 CNS was above 100 µM in each case.

Turning to `O=C(CC1C(=O)Nc2ccccc2S1=O)Nc1cc(Cl)ccc1Cl` (centres undefined), the TGI with KM20L2 colon, in the test on RXF-631 renal, in the test on SNB-78 CNS and with XF 498 CNS was above 100 µM each time.

As for `COc1ccc2c(c1OCC(=O)O)C(=O)C(CCC(=O)O)CC2` (centres undefined), the TGI with KM20L2 colon, with RXF-631 renal, in the test on SNB-78 CNS, with HOP-18 NSCLC and with XF 498 CNS was above 100 µM each time.

As for `COC(=O)/C(=N\NC(N)=S)C(C(=O)OC)C(=O)C(=O)Nc1ccc(C)cc1` (centres undefined), the TGI with KM20L2 colon, in the test with RXF-631 renal, with SNB-78 CNS, in the test with HOP-18 NSCLC and with XF 498 CNS was above 100 µM in each case.

`CCOC(=O)c1ccc(/C(C)=N/NC(N)=S)cc1`: the TGI in the test on KM20L2 colon, in the test on RXF-631 renal, in the test with SNB-78 CNS, in the test with HOP-18 NSCLC and in the test on XF 498 CNS was above 100 µM in each case.

For `Cc1nc(Nc2ccc(Cl)cc2)sc1C(=O)NNC(=S)NN`, the TGI in the test with KM20L2 colon was 32.5 µM; in the test with RXF-631 renal, 36.1 µM; with SNB-78 CNS it was 57.2 µM; in the test with HOP-18 NSCLC, 33.5 µM; in the test on XF 498 CNS it was 38.4 µM.

On to `CC1(C)COC(c2cccc3c2C(=O)c2cccc(Cl)c2-3)=N1`, for which the total growth inhibition concentration (TGI) in the test with KM20L2 colon, in the test on RXF-631 renal, in the test with SNB-78 CNS and with XF 498 CNS was above 100 µM each time.

For the molecule `COc1ccc(CCN(C)C2CCC(C#N)(c3ccc(OC)c(OC)c3)CC2)cc1OC` (centres undefined), the TGI in the test on KM20L2 colon, in the test with RXF-631 renal, with HOP-18 NSCLC and with XF 498 CNS was above 100 µM each time.

For `Cc1ccc2nc(/C(=C/c3ccc(/C=C(\NC(=O)c4ccccc4)c4nc5ccc(C)cc5[nH]4)c(C)c3)NC(=O)c3ccccc3)[nH]c2c1`, the TGI worked out at 45.3 µM in the test with KM20L2 colon, 91.3 µM in the test with RXF-631 renal, 79.1 µM in the test with SNB-78 CNS and 36.5 µM with XF 498 CNS.
